Results on one compound are retold here after ChEMBL document CHEMBL2046411, “Virtual Screening and X-ray Crystallography for Human Kallikrein 6 Inhibitors with an Amidinothiophene P1 Group” (ACS Med Chem Lett, 2012).

This assay addresses Kallikrein-6 (Homo sapiens, UniProt Q92876). The assay is described as follows: Inhibition of N-terminus His6-tagged human kallikrein 6 expressed in baculovirus infected insect sf9 cells using Boc-Phe-Ser-Arg-AMC as substrate by fluorescence analysis.

One may read the IC50 as the concentration that gives 50% inhibition. A higher IC50 goes with lower potency.

Take `COc1ccc2ccc(S(=O)(=O)N(Cc3ccccc3)[C@H]3CCN(Cc4ccc(C(=N)N)s4)C3=O)cc2c1`: inhibition was half-maximal at 1.5 µM (IC50).
